Values quoted from earlier work, collected in patent US5545620A, “Synthetic fibronectin fragments as inhibitors of retroviral infection” (priority 1994, dated 1996).

tested on: cell adhesion; settings: cited from earlier work

Substance | promotion of cell adhesion
FN-6: fibronectin fragment (1961-1985) SEQ ID NO. 6, restricted to isoforms containing the type IIIcs region (DELPQLVTLPHPNLHGPEILDVPST) | promotes cell adhesion by an α4β1 integrin-dependent mechanism
KNNQKSEPLIGRKKT [FN-2] | promote cell adhesion
YEKPGSPPREWPRPRPGV (YEKPGSPPREVVPRPRPGV) [FN-1] | promote cell adhesion
